From patent US20090240058A1, “Activator for Peroxisome Proliferator-Activating Receptor Delta” (priority 2005, published 2009)

Assays:
hPPAR δ (LBD) = biological target: T1, hPPAR δ (LBD) (Homo sapiens, UniProt Q03181); assay: GAL4-hPPAR δ (LBD) luciferase reporter transactivation in CV-1 cells; assay type: cell-based; conditions: relative to 100% of GW-501516 at 10^−7 M
T1 construct: A receptor expression plasmid (pSG5-GAL4-hPPAR α or γ or δ (LBD)); GAL4 (fusion partner); expressed in transfected cells; host or cells: CV-1 cells (ATCC)
T1 sequence (Q03181 211-439 limits assumed): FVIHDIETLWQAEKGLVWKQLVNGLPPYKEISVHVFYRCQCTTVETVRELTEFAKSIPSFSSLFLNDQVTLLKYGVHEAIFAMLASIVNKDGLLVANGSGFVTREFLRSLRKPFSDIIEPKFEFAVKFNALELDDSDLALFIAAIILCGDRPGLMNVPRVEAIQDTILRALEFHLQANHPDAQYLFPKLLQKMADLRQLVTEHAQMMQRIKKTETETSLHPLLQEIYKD
Description: For determining PPARδ activating effect of the compounds according to the invention, PPARδ activating effects of test compounds (compounds of Examples) were measured by the following method:
(§1) A receptor expression plasmid (pSG5-GAL4-hPPAR α or γ or δ (LBD)), a luciferase expression plasmid (pUC8-MH100x4-TK-Luc) and β-galactosidase expression plasmid (pCMX-β-GAL) (Kliewer, S. A., et. al., (1992) Nature, 358:771-774) are transfected into CV-1 cells (ATCC). After gene transfer utilizing a lipofection reagent DMRIE-C or Lipofectamin 2000 (Invitrogen), it is incubated for 42 hours in the presence of the test compound. Then, the luciferase activity and β-GAL activity are measured on the soluble cells. The luciferase activity is calibrated by the β-GAL activity. A relative ligand activity is calculated for each of the PPARα, γ and δ under the following conditions: a relative activity of PPAR α is calculated in consideration of a luciferase activity (assigned to 100%) of cells treated with the compound described in Example 2 of the aforementioned Patent Publication 4 (PPARα-selective agonist); a relative activity of PPAR γ is calculated in consideration of a luciferase activity (assigned to 100%) cells treated with Rosiglitazone; and a relative activity of PPAR δ is calculated in consideration of a luciferase activity (assigned to 100%) of cells treated with GW-501516. See the below-described Examples 22 and 23.
(§2) The PPARδ activating effects of test compounds (compounds of Examples) were measured by the following method:
as §1, with “(pUC8-MH100x-4-TK-Luc)” for “(pUC8-MH100x4-TK-Luc)”, “approx. 40” for “42”, “PPAR α,” for “PPARα,”, “GW-501516.” for “GW-501516. See the below-described Examples 22 and 23.”
(§3) The experimental results Table 28 were obtained by procedures similar to the procedures for pharmacological experimental described in Example 22.

hPPAR γ (LBD) = biological target: T2, hPPAR γ (LBD) (Homo sapiens, UniProt P37231); assay: GAL4-hPPAR γ (LBD) luciferase reporter transactivation in CV-1 cells; assay type: cell-based; set-up: key: IA: inactive; conditions: relative to 100% of Rosiglitazone at 10^−5 M
T2 construct: A receptor expression plasmid (pSG5-GAL4-hPPAR α or γ or δ (LBD)); GAL4 (fusion partner); expressed in transfected cells; host or cells: CV-1 cells (ATCC)
T2 sequence (P37231 238-503 limits assumed): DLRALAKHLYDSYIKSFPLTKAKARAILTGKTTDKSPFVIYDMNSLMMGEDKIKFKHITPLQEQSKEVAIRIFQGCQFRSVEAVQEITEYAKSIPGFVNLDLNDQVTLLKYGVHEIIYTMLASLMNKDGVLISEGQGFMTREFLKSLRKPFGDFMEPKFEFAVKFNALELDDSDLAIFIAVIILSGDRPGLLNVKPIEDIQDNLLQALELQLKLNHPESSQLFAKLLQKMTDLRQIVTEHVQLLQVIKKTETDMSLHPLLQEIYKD
Description: as §1, §2
as §1, with “(pUC8-MH100x-4-TK-Luc)” for “(pUC8-MH100x4-TK-Luc)”, “approx. 40” for “42”, “PPAR α,” for “PPARα,”, “GW-501516.” for “GW-501516. See the below-described Examples 22 and 23.”
as §3

hPPAR α (LBD) = biological target: T3, hPPAR α (LBD) (Homo sapiens, UniProt Q07869); assay: GAL4-hPPAR α (LBD) luciferase reporter transactivation in CV-1 cells; assay type: cell-based; set-up: key: IA: inactive; conditions: relative to 100% of compound of Example 2 of Patent Publication 4 at 10^−6 M
T3 construct: A receptor expression plasmid (pSG5-GAL4-hPPAR α or γ or δ (LBD)); GAL4 (fusion partner); expressed in transfected cells; host or cells: CV-1 cells (ATCC)
T3 sequence (Q07869 239-466 limits assumed): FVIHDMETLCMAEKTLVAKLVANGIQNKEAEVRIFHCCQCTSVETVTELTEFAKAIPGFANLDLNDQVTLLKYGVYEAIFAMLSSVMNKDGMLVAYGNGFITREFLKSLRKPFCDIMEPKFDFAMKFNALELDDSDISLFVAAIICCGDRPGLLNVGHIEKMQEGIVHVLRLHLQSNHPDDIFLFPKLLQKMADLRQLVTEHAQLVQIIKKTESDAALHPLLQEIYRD
Description: as §1, §2
as §1, with “(pUC8-MH100x-4-TK-Luc)” for “(pUC8-MH100x4-TK-Luc)”, “approx. 40” for “42”, “PPAR α,” for “PPARα,”, “GW-501516.” for “GW-501516. See the below-described Examples 22 and 23.”
as §3

[1] = Table 28, test compound 10^−6 M
[2] = test compound 10^−7 M (Examples 5, 8 and 10)
[3] = test compound 10^−7 M (Examples 8 and 10)

PPAR activity (%) δ (hPPAR δ (LBD); test compound 10^−6 M) [%]	PPAR activity (%) γ (hPPAR γ (LBD); test compound 10^−6 M)	PPAR activity (%) α (hPPAR α (LBD); test compound 10^−6 M)	PPAR activity (%) δ (hPPAR δ (LBD); [1]) [%]	PPAR activity (%) γ (hPPAR γ (LBD); [1])	PPAR activity (%) α (hPPAR α (LBD); [1])	melting point [°C]	PPAR activity (%) δ (hPPAR δ (LBD); [2]) [%]	PPAR activity (%) α (hPPAR α (LBD); [3]) [%]	SMILES
59	29%	73%							Cc1cc(C(=O)CCc2cc(-c3ccc(C(F)(F)F)cc3)nn2C(C)C)ccc1OC(C)C(=O)O (stereo not drawn) [Example 9, 2-[4-[3-[1-Isopropyl-3-(4-trifluoromethylphenyl)-1H-pyrazol-5-yl]propionyl]-2-methylphenoxy]propionic acid]
			85	11%	99%				Cc1cc(C(=O)CCc2sc(-c3ccc(C(F)(F)F)cc3)cc2C(C)C)ccc1OC(C)(C)C(=O)O [Example 15, 2-[4-[3-[3-Isopropyl-5-(4-trifluoromethylphenyl)thiophen-2-yl]propionyl]-2-methylphenoxy]-2-methylpropionic acid]
	54%						53	77	CCCCCCn1nc(-c2ccc(C(F)(F)F)cc2)cc1CCC(=O)c1ccc(OC(C)(C)C(=O)O)c(C)c1 [Example 10, 2-[4-[3-[1-Hexyl-3-(4-trifluoromethylphenyl)-1H-pyrazol-5-yl]propionyl]-2-methylphenoxy]-2-methylpropionic acid]
86	IA	IA				160 to 163			Cc1cc(C(=O)CCc2cc(-c3ccc(C(F)(F)F)cc3)nn2C(C)C)ccc1OCC(=O)O [Example 6, [4-[3-[1-Isopropyl-3-(4-trifluoromethylphenyl)-1H-pyrazol-5-yl]propionyl]-2-methylphenoxy]acetic acid]
	15%	109%					93		Cc1cc(C(=O)CCc2cc(-c3ccc(C(F)(F)F)cc3)nn2C(C)C)ccc1OC(C)(C)C(=O)O [Example 5, 2-[4-[3-[1-Isopropyl-3-(4-trifluoromethylphenyl)-1H-pyrazol-5-yl]propionyl]-2-methylphenoxy]-2-methylpropionic acid]
72	38%	84%							C=C(CCc1cc(-c2ccc(C(F)(F)F)cc2)nn1C(C)C)c1ccc(OC(C)(C)C(=O)O)c(C)c1 [Example 7, 2-[4-[1-[2-[1-Isopropyl-3-(4-trifluoromethylphenyl)-1H-pyrazol-5-yl]ethyl]vinyl]-2-methylphenoxy]-2-methylpropionic acid]
	61%						45	89	Cc1cc(C(C)CCc2cc(-c3ccc(C(F)(F)F)cc3)nn2C(C)C)ccc1OC(C)(C)C(=O)O (stereo not drawn) [Example 8, 2-[4-[3-[1-Isopropyl-3-(4-trifluoromethylphenyl)-1H-pyrazol-5-yl]-1-methylpropyl]-2-methylphenoxy]-2-methylpropionic acid]

Further lines, the compound ahead of its results:

SMILES	PPAR activity (%) δ (hPPAR δ (LBD); test compound 10^−6 M) [%]	PPAR activity (%) γ (hPPAR γ (LBD); test compound 10^−6 M)	PPAR activity (%) α (hPPAR α (LBD); test compound 10^−6 M)	PPAR activity (%) δ (hPPAR δ (LBD); [1]) [%]	PPAR activity (%) γ (hPPAR γ (LBD); [1])	PPAR activity (%) α (hPPAR α (LBD); [1])	melting point [°C]	PPAR activity (%) δ (hPPAR δ (LBD); [2]) [%]	PPAR activity (%) α (hPPAR α (LBD); [3]) [%]
Cc1cc(C(=O)CCc2sc(-c3ccc(C(F)(F)F)cc3)cc2C(C)C)ccc1OCC(=O)O [Example 16, [4-[3-[3-Isopropyl-5-(4-trifluoromethylphenyl)thiophen-2-yl]propionyl]-2-methylphenoxy]acetic acid]				92	inactive	inactive	139 to 143		
CCCCCCc1cc(-c2ccc(C)cc2)sc1CCC(=O)c1ccc(OC(C)(C)C(=O)O)c(C)c1 [Example 17, 2-[4-[3-[3-Hexyl-5-(4-methylphenyl)thiophen-2-yl]propionyl]-2-methylphenoxy]-2-methylpropionic acid]				76	35%	109%			
Cc1cc(C(=O)CCc2sc(-c3ccc(C(F)(F)F)cc3)cc2C)ccc1OCC(=O)O [Example 13, [2-Methyl-4-[3-[3-methyl-5-(4-trifluoromethylphenyl)thiophen-2-yl]propionyl]phenoxy]acetic acid]	82	IA	IA						
Cc1cc(C(=O)CCc2sc(-c3ccc(C(F)(F)F)cc3)cc2C)ccc1OC(C)(C)C(=O)O [Example 12, 2-Methyl-2-[2-methyl-4-[3-[3-methyl-5-(4-trifluoromethylphenyl)thiophen-2-yl]propionyl]phenoxy]-propionic acid]	94	29%	51%						
Cc1ccc(-n2cc(CCC(=O)c3ccc(OC(C)(C)C(=O)O)c(C)c3)c(C(C)C)n2)nc1 [Example 3, 2-[4-[3-[3-Isopropyl-1-(5-methylpyridin-2-yl)-1H-pyrazol-4-yl]propionyl]-2-methylphenoxy]-2-methylpropionic acid]	72	30%	131%						
CCCCCCn1nc(-c2ccc(C)cc2)cc1CCC(=O)c1ccc(OC(C)(C)C(=O)O)c(C)c1 [Example 14, 2-[4-[3-[1-Hexyl-3-(4-methylphenyl)-1H-pyrazol-5-yl]propionyl]-2-methylphenoxy]-2-methylpropionic acid]				94	48%	123%			
Cc1cc(C(=O)CCc2cn(-c3ccc(C(F)(F)F)cc3)nc2C(C)C)ccc1OC(C)(C)C(=O)O [Example 1, 2-[4-[3-[3-Isopropyl-1-(4-trifluoromethylphenyl)-1H-pyrazol-4-yl]propionyl]-2-methylphenoxy]-2-methylpropionic acid]	87	7%	62%						
CCCCCCn1nc(-c2ccc(C(F)(F)F)cc2)cc1CCC(=O)c1ccc(OCC(=O)O)c(C)c1 [Example 11, [4-[3-[1-Hexyl-3-(4-trifluoromethylphenyl)-1H-pyrazol-5-yl]propionyl]-2-methylphenoxy]acetic acid]	81	IA	IA				118 to 123		
Cc1cc(C(=O)CCc2cn(-c3ccc(C(F)(F)F)cc3)nc2C(C)C)ccc1OCC(=O)O [Example 2, 4-[3-[3-Isopropyl-1-(4-trifluoromethylphenyl)-1H-pyrazol-4-yl]propionyl]-2-methylphenoxyacetic acid]	76	IA	IA						
